From patent US9745335B2 (Blirt S.A., priority 2012, dated 2017)

Columns and labels:
[1] = system: Candida albicans ATCC 10231; assay: antifungal activity in vitro, serial dilution in RPMI 1640; format: cell-based
Method in brief: (§1)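 Susceptibility was tested by serial broth dilution in buffered RPMI 1640, pH 7.0, following the NCCLS M27-A2 reference procedure for yeasts. Growth was read as optical density at 531 nm, and A531 was plotted against compound concentration.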

[2] = system: Candida lusitaniae DSM 70102; assay: as above; format: cell-based
Method in brief: as §1

[3] = system: Candida krusei DSM 6128; assay: as above; format: cell-based
Method in brief: as §1

[4] = system: Candida glabrata DSM 11226; assay: as above; format: cell-based
Method in brief: as §1

[5] = system: Candida tropicalis KKP 334; assay: as above; format: cell-based
Method in brief: as §1

[6] = system: Saccharomyces cerevisiae ATCC 9763; assay: as above; format: cell-based; details: RPMI 1640, pH 7.0; for Antifungal activity IC50: Saccharomyces cerevisiae ATCC 9763 (first head over MIC and IC50); for Antifungal activity MIC: Saccharomyces cerevisiae ATCC 9763
Method in brief: as §1

[7] = system: Candida stellatoidea CBS 1905; assay: antifungal activity in vitro, broader spectrum; format: cell-based
Method: (§2) For the determination of antifungal activity in vitro we used method of serial dilution in buffered medium RPMI 1640, pH 7.0, in a 96-wells microplates, according to the standard procedure (National Committee for Clinical Laboratory Standards. Reference method for broth dilution antifungal susceptibility testing of yeast, approved standard, 2nd ed. M27-A2 vol. 22 Wayne, Pa., 2002). The optical density of cells suspension was measured using a microplates reader (Victor^3, Perkin-Elmer) at the wavelength λ=531 nm (A531). On the basis of obtained results the diagrams of relation between A531 values and concentration of examined compound were made.
(§3) Obtained results are presented below in tables 2A and 2B.

[8] = system: Candida albicans SC 5314; assay: antifungal activity in vitro, broader spectrum; format: cell-based
Method: as §2, §3

[9] = system: Candida quilliermondii DSM 11947; assay: antifungal activity in vitro, broader spectrum; format: cell-based
Method: as §2, §3

[10] = system: Candida pseudotropicalis KKP 324; assay: antifungal activity in vitro, broader spectrum; format: cell-based
Method: as §2, §3

[11] = system: Candida dubliniensis CBS 7987; assay: antifungal activity in vitro, broader spectrum; format: cell-based
Method: as §2, §3

[12] = system: Candida parapsilosis DSM 5784; assay: antifungal activity in vitro, broader spectrum; format: cell-based
Method: as §2, §3

[13] = system: Aspergillus niger LOCK E201; assay: antifungal activity in vitro, broader spectrum; format: cell-based
Method: as §2, §3

[14] = system: Candida lipolytica KKP 322; assay: antifungal activity in vitro, broader spectrum; format: cell-based
Method: as §2, §3

[15] = system: Candida arborea KKP 319; assay: antifungal activity in vitro, broader spectrum; format: cell-based
Method: as §2, §3

[16] = system: Trichoderma viride LOCK E159; assay: antifungal activity in vitro, broader spectrum; format: cell-based
Method: as §2, §3

[17] = system: Candida albicans clinical strain Gu4; assay: antifungal activity against MDR fungal strains and parents; format: cell-based; details: C. albicans Gu4, fluconazole sensitive, parent strain for Gu5
Method: as §2

[18] = system: Candida albicans clinical strain F5 (CaMdr1p); assay: as above; format: cell-based; details: C. albicans F5 (CaMdr1p), fluconazole-resistant
Method: as §2

[19] = system: Candida albicans clinical strain B4 (CaMdr1p); assay: as above; format: cell-based; details: C. albicans B4 (CaMdr1p), fluconazole-resistant
Method: as §2

[20] = system: Candida albicans clinical strain F2; assay: as above; format: cell-based; details: C. albicans F2, fluconazole sensitive, parent strain for F5
Method: as §2

[21] = system: Candida albicans strain STY31; assay: as above; format: cell-based; details: C. albicans STY31, 5674 derivative, deletion of CDR1 and CDR2
Method: as §2

[22] = system: Candida albicans strain STY7 (CaCdr1p); assay: as above; format: cell-based; details: C. albicans STY7 (CaCdr1p), 5674 derivative, deletion of CDR2
Method: as §2

[23] = system: Candida albicans clinical strain Gu5 (CaCdr1p, CaCdr2p); assay: as above; format: cell-based; details: C. albicans Gu5 (CaCdr1p, CaCdr2p), fluconazole-resistant
Method: as §2

[24] = system: Candida albicans strain 5674 (CaCdr1p, CaCdr2p); assay: as above; format: cell-based; details: C. albicans 5674 (CaCdr1p, CaCdr2p)
Method: as §2

[25] = system: Candida albicans clinical strain B3; assay: as above; format: cell-based; details: C. albicans B3, fluconazole sensitive, parent strain for B4
Method: as §2

[26] = system: LLC-PK1 cells; assay: cytotoxic activity against mammalian cells in tissue culture (MTT); format: cell-based, pig
[27] = system: Human erythrocytes; assay: hemotoxicity determination (hemolytic activity); format: cell-based
Method in brief: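 Human erythrocytes (2×10^7/ml in saline) were incubated with serially diluted compound for 30 min at 37 °C and then centrifuged. Released haemoglobin was read at A540 against a 0.1% Triton X-100 full-lysis control. EH50 is the interpolated concentration giving 50% of the control A540.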

[28] = system: HepG2 cells; assay: cytotoxic activity against mammalian cells in tissue culture (MTT); format: cell-based, human
[29] = system: CCRF-CEM cells; assay: as above; format: cell-based, human

Row | Molecule | Antifungal activity MIC [1] [µg/mL] | Antifungal activity MIC [2] [µg/mL] | Antifungal activity MIC [3] [µg/mL] | Antifungal activity MIC [4] [µg/mL] | Antifungal activity MIC [5] [µg/mL] | Antifungal activity IC50 [6] [µg/mL] | Antifungal activity MIC [6] [µg/mL] | Antifungal activity MIC [7] [µg/mL] | Antifungal activity MIC [8] [µg/mL] | Antifungal activity MIC [9] [µg/mL] | Antifungal activity MIC [10] [µg/mL] | Antifungal activity MIC [11] [µg/mL] | Antifungal activity MIC [12] [µg/mL] | Antifungal activity MIC [13] [µg/mL] | Antifungal activity MIC [14] [µg/mL] | Antifungal activity MIC [15] [µg/mL] | Antifungal activity MIC [16] [µg/mL] | Antifungal activity MIC [17] [µg/mL] | Antifungal activity MIC [18] [µg/mL] | Antifungal activity MIC [19] [µg/mL] | further results
1 | C[C@@H]1[C@H](O)[C@@H](C)/C=C/C=C/C=C/C=C/C=C/C=C/C=C/[C@H](O[C@@H]2O[C@H](C)[C@@H](O)[C@H](NC(=S)NCCN3CCCCC3)[C@@H]2O)C[C@@H]2O[C@](O)(C[C@@H](O)C[C@@H](O)[C@H](O)CC[C@@H](O)C[C@@H](O)CC(=O)O[C@H]1C)C[C@H](O)[C@H]2C(=O)O [Compound A22, N-{[3-(2-piperidin-1-yl)ethyl]thioureidyl}amphotericin B] | 1 | 1 | 2 | 4 | 1 | 0.71 | 1 | 1 | 2 | 1 | 2 | 1 | 2 | 2 | 1 | 2 | 2 | 0.25 | 8 | 4 | Antifungal activity MIC [20]: 4 µg/mL; Antifungal activity MIC [21]: 2 µg/mL; Antifungal activity MIC [22]: 2 µg/mL; Antifungal activity MIC [23]: 2 µg/mL; Antifungal activity MIC [24]: 1 µg/mL; Antifungal activity MIC [25]: 0.25 µg/mL; IC50 (cytotoxic activity) [26]: >100 µg/mL; Hemotoxi EH50 [27]: >100 µg/mL; IC50 (cytotoxic activity) [28]: >100 µg/mL; IC50 (cytotoxic activity) [29]: >100 µg/mL
2 | N-methyl-L-(O^γ-tert-butyl)glutamylamphotericin B [Compound A34] | 4 | 2 | 4 | 4 | 4 | 1.22 | 2 | 1 | 1 | 2 | 1 | 1 | 1 | 2 | 1 | 4 | 4 | 1 | 8 | 2 | Antifungal activity MIC [20]: 4 µg/mL; Antifungal activity MIC [21]: 2 µg/mL; Antifungal activity MIC [22]: 2 µg/mL; Antifungal activity MIC [23]: 2 µg/mL; Antifungal activity MIC [24]: 4 µg/mL; Antifungal activity MIC [25]: 1 µg/mL; IC50 (cytotoxic activity) [26]: >100 µg/mL; Hemotoxi EH50 [27]: >100 µg/mL; IC50 (cytotoxic activity) [28]: >100 µg/mL; IC50 (cytotoxic activity) [29]: >100 µg/mL
3 | N-(L-N,N-diethylphenylalanyl)amphotericin B [Compound A42] | 4 | 4 | 8 | 8 | 4 | 2.75 | 4 | 4 | 4 | 4 | 4 | 2 | 4 | 1 | 4 | 4 | 2 | 2 | 2 | 8 | Antifungal activity MIC [20]: 1 µg/mL; Antifungal activity MIC [21]: 4 µg/mL; Antifungal activity MIC [22]: 4 µg/mL; Antifungal activity MIC [23]: 4 µg/mL; Antifungal activity MIC [24]: 4 µg/mL; Antifungal activity MIC [25]: 2 µg/mL; IC50 (cytotoxic activity) [26]: >100 µg/mL; Hemotoxi EH50 [27]: >100 µg/mL; IC50 (cytotoxic activity) [28]: >100 µg/mL; IC50 (cytotoxic activity) [29]: >100 µg/mL
